For orientation: EC50 means the concentration giving half of the maximal effect. As usually defined, the solubility (thermodynamic) is the concentration in solution at equilibrium with solid.

The values that follow come from patent US20250120989A1, “BRIDGED TRICYCLIC CARBAMOYLPYRIDONE COMPOUNDS AND USES THEREOF” (priority 2023, published 2025).

The structures appear in SMILES notation. In brackets after ≈: the same amount, converted by molar mass.

In one data set the test system is HIV-1 (IIIB). Description: microbe, parasite or virus in culture. Type of data set: cell-based. The conditions noted are these: Human immunodeficiency virus 1, MT4, 120 h; HIV-1 (IIIB) replication in MT-4 cells, 5 days, Cell Titer Glo; read-out: MT4 EC50. Background: ATP-based viability assays read luminescence as a measure of living cells.
A further data set is described as follows: in vitro. The conditions noted are these: human; for CC50 at 5 days: uninfected MT-4 cells.
A further data set in a line: physchem. The conditions noted are these: 23 °C, thermodynamic from solid; for solubility thermodynamic at 24 h: FaSSIF.

Consider `CC1=NO[C@@]2(CC[C@H](C)N3C[C@H]2n2cc(C(=O)NCc4ccc(F)cc4F)c(=O)c(OCOC(=O)OCC(C)(C)CN(CC(=O)O)C(=O)OCOP(=O)(O)O)c2C3=O)C1` [Compound 37, N-(3-((((((3′S,5S,7′R)-10′-((2,4-difluorobenzyl)carbamoyl)-3,3′-dimethyl-1′,11′-dioxo-1′,4′,5′,11′-tetrahydro-3′H,4H,7′H-spiro[isoxazole-5,6′-[2,7]methanopyrido[1,2-a][1,4]diazonin]-12′-yl)oxy)methoxy)carbonyl)oxy)-2,2-dimethylpropyl)-N-(((phosphonooxy)methoxy)carbonyl)glycine], for which the EC50 in the data set on HIV-1 (IIIB) was 0.00149 µM. In the data set “in vitro”, this compound had a CC50 at 5 days of 11.1 µM. This compound came in with a solubility (thermodynamic) at 24 h in “physchem” of 4980 µg/mL (≈ 5.81 mM).

For `COC1=NO[C@@]2(CC[C@H](C)N3C[C@H]2n2cc(C(=O)NCc4ccc(F)cc4F)c(=O)c(OCOC(=O)OCC(C)(C)COP(=O)(O)O)c2C3=O)C1` [Compound 32, (((3′S,5S,7′R)-10′-((2,4-difluorobenzyl)carbamoyl)-3-methoxy-3′-methyl-1′,11′-dioxo-1′,4′,5′,11′-tetrahydro-3′H,4H,7′H-spiro[isoxazole-5,6′-[2,7]methanopyrido[1,2-a][1,4]diazonin]-12′-yl)oxy)methyl (2,2-dimethyl-3-(phosphonooxy)propyl) carbonate], the EC50 in the data set with HIV-1 (IIIB) was determined as 0.00292 µM. Moreover, the CC50 at 5 days in “in vitro” amounted to 17.7 µM. Moreover, in “physchem”, the thermodynamic solubility at 24 h was found to be 4800 µg/mL (≈ 6.47 mM).

Regarding `CC1=NO[C@@]2(CC[C@H](C)N3C[C@H]2n2cc(C(=O)NCc4ccc(F)cc4F)c(=O)c(OCOC(=O)O[C@H](C)C[C@@H](C)OP(=O)(O)O)c2C3=O)C1` [Compound 31, (((3′S,5S,7′R)-10′-((2,4-difluorobenzyl)carbamoyl)-3,3′-dimethyl-1′,11′-dioxo-1′,4′,5′,11′-tetrahydro-3′H,4H,7′H-spiro[isoxazole-5,6′-[2,7]methanopyrido[1,2-a][1,4]diazonin]-12′-yl)oxy)methyl ((2R,4R)-4-(phosphonooxy)pentan-2-yl) carbonate], the EC50 in the data set on HIV-1 (IIIB) worked out at 0.0035 µM. For the same compound, the CC50 at 5 days in “in vitro” was determined as 12.9 µM. Further, the solubility (thermodynamic) at 24 h in the data set “physchem” came out at 4620 µg/mL (≈ 6.37 mM).

Consider `CC1=NO[C@@]2(CC[C@H](C)N3C[C@H]2n2cc(C(=O)NCc4ccc(F)cc4F)c(=O)c(OCOC(=O)O[C@@H](C)[C@@H](C)OP(=O)(O)O)c2C3=O)C1` [Compound 57, (((3′S,5S,7′R)-10′-((2,4-difluorobenzyl)carbamoyl)-3,3′-dimethyl-1′,11′-dioxo-1′,4′,5′,11′-tetrahydro-3′H,4H,7′H-spiro[isoxazole-5,6′-[2,7]methanopyrido[1,2-a][1,4]diazonin]-12′-yl)oxy)methyl ((2S,3R)-3-(phosphonooxy)butan-2-yl) carbonate], for which the 50% effective concentration (EC50) in the data set with HIV-1 (IIIB) is 0.00232 µM. The compound also yielded a CC50 at 5 days in the data set “in vitro” of 19.9 µM. This compound had a thermodynamic solubility at 24 h in “physchem” of 4630 µg/mL (≈ 6.5 mM).

`CC1=NO[C@@]2(CC[C@H](C)N3C[C@H]2n2cc(C(=O)NCc4ccc(F)cc4F)c(=O)c(OCOC(=O)O[C@@H](C)COP(=O)(O)O)c2C3=O)C1` [Compound 19, (((3′S,5S,7′R)-10′-((2,4-difluorobenzyl)carbamoyl)-3,3′-dimethyl-1′,11′-dioxo-1′,4′,5′,11′-tetrahydro-3′H,4H,7′H-spiro[isoxazole-5,6′-[2,7]methanopyrido[1,2-a][1,4]diazonin]-12′-yl)oxy)methyl ((S)-1-(phosphonooxy)propan-2-yl) carbonate]: the EC50 in the data set with HIV-1 (IIIB) worked out at 0.00235 µM. Moreover, the CC50 at 5 days in the data set “in vitro” stood at 12.2 µM. Further, the solubility (thermodynamic) at 24 h in “physchem” is 5060 µg/mL (≈ 7.24 mM).

Turning to `CC1=NO[C@@]2(CC[C@H](C)N3C[C@H]2n2cc(C(=O)NCc4ccc(F)cc4F)c(=O)c(OCOC(=O)OC[C@H](C)COP(=O)(O)O)c2C3=O)C1` [Compound 69, (((3′S,5S,7′R)-10′-((2,4-difluorobenzyl)carbamoyl)-3,3′-dimethyl-1′,11′-dioxo-1′,4′,5′,11′-tetrahydro-3′H,4H,7′H-spiro[isoxazole-5,6′-[2,7]methanopyrido[1,2-a][1,4]diazonin]-12′-yl)oxy)methyl ((S)-2-methyl-3-(phosphonooxy)propyl) carbonate], in the data set with HIV-1 (IIIB), the EC50 was 0.0029 µM. Also, the CC50 at 5 days in “in vitro” amounted to 17.3 µM. The compound further had a solubility (thermodynamic) at 24 h in “physchem” of 4600 µg/mL (≈ 6.46 mM).

On to `CC1=NO[C@@]2(CC[C@H](C)N3C[C@H]2n2cc(C(=O)NCc4ccc(F)cc4F)c(=O)c(OCOC(=O)O[C@H](C)[C@@H](C)OP(=O)(O)O)c2C3=O)C1` [Compound 27, (((3′S,5S,7′R)-10′-((2,4-difluorobenzyl)carbamoyl)-3,3′-dimethyl-1′,11′-dioxo-1′,4′,5′,11′-tetrahydro-3′H,4H,7′H-spiro[isoxazole-5,6′-[2,7]methanopyrido[1,2-a][1,4]diazonin]-12′-yl)oxy)methyl ((2R,3R)-3-(phosphonooxy)butan-2-yl) carbonate], for which, in the data set with HIV-1 (IIIB), the EC50 turned out to be 0.00247 µM. This compound came in with a CC50 at 5 days in the data set “in vitro” of 18.7 µM. The compound also gave a solubility (thermodynamic) at 24 h in “physchem” of 4660 µg/mL (≈ 6.55 mM).

On to `COC1=NO[C@@]2(CC[C@H](C)N3C[C@H]2n2cc(C(=O)NCc4ccc(F)cc4F)c(=O)c(OCOC(=O)O[C@H](C)[C@@H](C)OP(=O)(O)O)c2C3=O)C1` [Compound 61, (((3′S,5S,7′R)-10′-((2,4-difluorobenzyl)carbamoyl)-3-methoxy-3′-methyl-1′,11′-dioxo-1′,4′,5′,11′-tetrahydro-3′H,4H,7′H-spiro[isoxazole-5,6′-[2,7]methanopyrido[1,2-a][1,4]diazonin]-12′-yl)oxy)methyl ((2R,3R)-3-(phosphonooxy)butan-2-yl) carbonate], for which the EC50 in the data set on HIV-1 (IIIB) came to 0.00235 µM. The compound also had a CC50 at 5 days in “in vitro” of 20.9 µM. In the data set “physchem”, this compound registered a thermodynamic solubility at 24 h of 4800 µg/mL (≈ 6.58 mM).

Consider `CC1=NO[C@@]2(CC[C@H](C)N3C[C@H]2n2cc(C(=O)NCc4ccc(F)cc4F)c(=O)c(OCOC(=O)N(C)CCN(CC(=O)O)C(=O)OCOP(=O)(O)O)c2C3=O)C1` [Compound 21, N-(2-((((((3′S,5S,7′R)-10′-((2,4-difluorobenzyl)carbamoyl)-3,3′-dimethyl-1′,11′-dioxo-1′,4′,5′,11′-tetrahydro-3′H,4H,7′H-spiro[isoxazole-5,6′-[2,7]methanopyrido[1,2-a][1,4]diazonin]-12′-yl)oxy)methoxy)carbonyl)(methyl)amino)ethyl)-N-(((phosphonooxy)methoxy)carbonyl)glycine], for which the EC50 in the data set on HIV-1 (IIIB) is 0.0015 µM. The CC50 at 5 days in “in vitro” stood at 15.2 µM. The solubility (thermodynamic) at 24 h in “physchem” is 5040 µg/mL (≈ 6.08 mM).

Take `CC1=NO[C@@]2(CC[C@H](C)N3C[C@H]2n2cc(C(=O)NCc4ccc(F)cc4F)c(=O)c(OCOC(=O)OCC(C)(C)COP(=O)(O)O)c2C3=O)C1` [Compound 12, (((3′S,5S,7′R)-10′-((2,4-difluorobenzyl)carbamoyl)-3,3′-dimethyl-1′,11′-dioxo-1′,4′,5′,11′-tetrahydro-3′H,4H,7′H-spiro[isoxazole-5,6′-[2,7]methanopyrido[1,2-a][1,4]diazonin]-12′-yl)oxy)methyl (2,2-dimethyl-3-(phosphonooxy)propyl) carbonate]: the EC50 with HIV-1 (IIIB) worked out at 0.00201 µM. For the same compound, the CC50 at 5 days in “in vitro” was found to be 14 µM. This compound came in with a solubility (thermodynamic) at 24 h in the data set “physchem” of 5280 µg/mL (≈ 7.27 mM).

For `CC1=NO[C@@]2(CC[C@H](C)N3C[C@H]2n2cc(C(=O)NCc4ccc(F)cc4F)c(=O)c(OCOC(=O)C(C)(C)CCN(CC(=O)O)C(=O)OCOP(=O)(O)O)c2C3=O)C1` [Compound 43, N-(4-((((3′S,5S,7′R)-10′-((2,4-difluorobenzyl)carbamoyl)-3,3′-dimethyl-1′,11′-dioxo-1′,4′,5′,11′-tetrahydro-3′H,4H,7′H-spiro[isoxazole-5,6′-[2,7]methanopyrido[1,2-a][1,4]diazonin]-12′-yl)oxy)methoxy)-3,3-dimethyl-4-oxobutyl)-N-(((phosphonooxy)methoxy)carbonyl)glycine], the EC50 with HIV-1 (IIIB) was 0.00177 µM. Further, the CC50 at 5 days in the data set “in vitro” amounted to 8.46 µM. The same compound came in with a thermodynamic solubility at 24 h in the data set “physchem” of 5420 µg/mL (≈ 6.43 mM).

For `CC1=NO[C@@]2(CC[C@H](C)N3C[C@H]2n2cc(C(=O)NCc4ccc(F)cc4F)c(=O)c(OCOC(=O)CCCOP(=O)(O)O)c2C3=O)C1` [Compound 40, (((3′S,5S,7′R)-10′-((2,4-difluorobenzyl)carbamoyl)-3,3′-dimethyl-1′,11′-dioxo-1′,4′,5′,11′-tetrahydro-3′H,4H,7′H-spiro[isoxazole-5,6′-[2,7]methanopyrido[1,2-a][1,4]diazonin]-12′-yl)oxy)methyl 4-(phosphonooxy)butanoate], the EC50 in the data set with HIV-1 (IIIB) was found to be 0.00126 µM. For the same compound, the CC50 at 5 days in “in vitro” worked out at 12.6 µM. Also, in the data set “physchem”, the solubility (thermodynamic) at 24 h was 5340 µg/mL (≈ 7.83 mM).

In the data set “in vitro”, `CC1=NO[C@@]2(CC[C@H](C)N3C[C@H]2n2cc(C(=O)NCc4ccc(F)cc4F)c(=O)c(OCOC(=O)OCCCCOP(=O)(O)O)c2C3=O)C1` [Compound 34, (((3′S,5S,7′R)-10′-((2,4-difluorobenzyl)carbamoyl)-3,3′-dimethyl-1′,11′-dioxo-1′,4′,5′,11′-tetrahydro-3′H,4H,7′H-spiro[isoxazole-5,6′-[2,7]methanopyrido[1,2-a][1,4]diazonin]-12′-yl)oxy)methyl (4-(phosphonooxy)butyl) carbonate] had a CC50 of 50 µM. The same compound registered a solubility (thermodynamic) in the data set “physchem” (fassif) of 4890 µg/mL (≈ 6.86 mM).

In the case of `CC1=NO[C@@]2(CC[C@H](C)N3C[C@H]2n2cc(C(=O)NCc4ccc(F)cc4F)c(=O)c(OCOC(=O)OCC[N+](C)(C)C)c2C3=O)C1` [Compound 15, 2-((((((3′S,5S,7′R)-10′-((2,4-difluorobenzyl)carbamoyl)-3,3′-dimethyl-1′,11′-dioxo-1′,4′,5′,11′-tetrahydro-3′H,4H,7′H-spiro[isoxazole-5,6′-[2,7]methanopyrido[1,2-a][1,4]diazonin]-12′-yl)oxy)methoxy)carbonyl)oxy)-N,N,Ntrimethylethan-1-aminium trifluoroacetic acid], the CC50 at 5 days in “in vitro” was 17.3 µM. The same compound registered a solubility (thermodynamic) at 24 h in “physchem” of 4370 µg/mL.
